Consider 33 compounds from US8389557B2, “Triazole derivatives useful as Axl inhibitors” (Rigel Pharmaceuticals, Inc., priority 2005, dated 2013).

One assay deals with T1, Axl (Homo sapiens, UniProt P30530).
T1 construct: endogenous in cells; host or cells: HeLa cells
T1 sequence (P30530 26-894): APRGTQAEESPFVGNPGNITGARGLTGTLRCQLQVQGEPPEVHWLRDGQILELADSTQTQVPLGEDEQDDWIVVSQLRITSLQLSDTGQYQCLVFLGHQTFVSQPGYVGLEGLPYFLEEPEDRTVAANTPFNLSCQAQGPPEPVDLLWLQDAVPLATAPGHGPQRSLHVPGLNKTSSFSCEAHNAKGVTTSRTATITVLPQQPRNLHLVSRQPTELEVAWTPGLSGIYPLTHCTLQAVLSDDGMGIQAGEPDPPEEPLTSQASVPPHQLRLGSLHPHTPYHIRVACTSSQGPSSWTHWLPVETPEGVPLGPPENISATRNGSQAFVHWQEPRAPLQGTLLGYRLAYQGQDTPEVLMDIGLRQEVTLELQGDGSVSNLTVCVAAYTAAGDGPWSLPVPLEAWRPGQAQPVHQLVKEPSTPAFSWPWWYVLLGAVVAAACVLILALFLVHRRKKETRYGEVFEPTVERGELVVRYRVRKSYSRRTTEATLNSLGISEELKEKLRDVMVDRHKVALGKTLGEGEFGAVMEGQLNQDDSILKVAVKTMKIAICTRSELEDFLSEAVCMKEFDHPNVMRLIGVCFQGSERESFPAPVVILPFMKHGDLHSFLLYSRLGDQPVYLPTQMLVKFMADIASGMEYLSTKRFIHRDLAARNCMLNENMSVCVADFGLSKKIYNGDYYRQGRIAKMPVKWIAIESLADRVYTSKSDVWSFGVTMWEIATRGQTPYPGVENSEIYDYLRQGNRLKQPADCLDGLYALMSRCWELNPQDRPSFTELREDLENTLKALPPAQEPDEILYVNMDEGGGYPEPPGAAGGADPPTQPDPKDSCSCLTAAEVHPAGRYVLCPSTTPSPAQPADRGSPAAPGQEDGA
As to the kind of experiment: Phospho-Akt in-cell Western assay (inhibition of Axl activity). Type of assay: cell-based. The conditions noted are these: Table 2; Hela cells, Axl antibody cross-linking stimulation, phospho-Akt chemiluminescence. In short, it runs like this:
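HeLa cells on poly-L-lysine, starved 24 h in 0.5% FCS DMEM with Axl/Fc 500 ng/mL, pre-treated with compound 1 h at 37° C. Axl stimulated 5 min by anti-Axl/anti-mouse antibody cross-linking. Fixed cells probed with anti-phospho-Akt and HRP secondary, chemiluminescence read.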
One may read the IC50 as the point on the concentration scale where inhibition reaches its midpoint. With `Nc1nc(Nc2ccc3c(c2)OCCO3)n(C(=O)c2cccc(OCCC3OCCO3)c2)n1` [compound 209], the IC50 is more than 20 µM.

For the compound `Nc1nc(Nc2ccc3c(c2)OCCO3)n(C(=O)c2ccc(OCCC3OCCO3)cc2)n1` [compound 213], the IC50 was more than 20 µM.

The assay is the same for the next values; noted with them: Table 3; Hela cells, Axl antibody cross-linking stimulation, phospho-Akt chemiluminescence.
Regarding `Nc1nc(Nc2ccc(OCCN3CCCC3)cc2)nn1C(=O)C1CC2C=CC1C2` (stereo not drawn) [compound 196, 5-amino-1-[2-(bicyclo[2.2.1]hept-5-ene)carbonyl]-3-[4-[2-(pyrrolidin-1-yl)ethoxy]phenylamino]-1H-1,2,4-triazole], the IC50 was more than 20 µM.

With `Nc1nc(Nc2ccc(OCCN3CCCC3)cc2)nn1C(=O)C1CC2CCC1C2` (stereo not drawn) [compound 200, 5-amino-1-[2-(bicyclo[2.2.1]heptane)carbonyl]-3-[4-[2-(pyrrolidin-1-yl)ethoxy]phenylamino]-1H-1,2,4-triazole], the IC50 is more than 20 µM.

`Nc1nc(Nc2ccc(OCCN3CCCC3)cc2)nn1C(=O)c1ccccn1` [compound 203, 5-amino-1-(pyridin-2-yl)carbonyl-3-[4-[2-(pyrrolidin-1-yl)ethoxy]phenylamino]-1H-1,2,4-triazole] yielded a half-maximal inhibitory concentration (IC50) of more than 20 µM.

The compound `Nc1nc(Nc2ccc(OCCN3CCCC3)cc2)nn1C(=O)c1ccncc1` [compound 204, 5-amino-1-(pyridin-4-yl)carbonyl-3-[4-[2-(pyrrolidin-1-yl)ethoxy]phenylamino]-1H-1,2,4-triazole] had an IC50 of more than 20 µM.

Still in this assay, the particulars now being: Table 5; Hela cells, Axl antibody cross-linking stimulation, phospho-Akt chemiluminescence.
Regarding `Cc1cccc(C(=O)n2nc(Nc3ccc4c(c3)N(C(=O)OC(C)(C)C)CCO4)nc2N)c1` [compound 206, 5-amino-3-[(2H,3H-4-tert-butoxycarbonylbenzo[1,4]oxazin-6-yl)amino]-1-(3-methylphenyl)carbonyl-1,2,4-triazole], the IC50 was more than 20 µM.

For the compound `Cc1cccc(C(=O)n2nc(Nc3ccc4oc(C(=O)NCCOC5CCCCO5)cc4c3)nc2N)c1` (stereo not drawn) [compound 207, 5-amino-1-(3-methylphenyl)carbonyl-3-[2-[N-[2-(tetrahydropyran-2-yloxy)ethyl]amino]carbonylbenzofuran-5-yl]amino-1H-1,2,4-triazole], the IC50 lay in the range of 1 to 10 µM.

In turn, `Cc1cccc(C(=O)n2nc(Nc3ccc4oc(C(=O)NCCO)cc4c3)nc2N)c1` [compound 208, 5-amino-3-[2-[2-hydroxyethylaminocarbonyl]benzofuran-5-yl]amino-1-(3-methylphenyl)carbonyl-1H-1,2,4-triazole] had an IC50 of 1 to 10 µM.

On to `Cc1cccc(C(=O)n2nc(Nc3ccc4c(c3)NCCO4)nc2N)c1` [compound 215, 5-amino-3-[(3,4-dihydrobenzo[1,4]oxazin-6-yl)amino]-1-(3-methylphenyl)carbonyl-1H-1,2,4-triazole], for which the IC50 was more than 20 µM.

`CCOC(=O)c1cc2cc(Nc3nc(N)n(C(=O)c4cccc(C)c4)n3)ccc2o1` [compound 219, 5-amino-3-[2-(ethoxycarbonyl)benzofuran-5-yl]amino-1-(3-methylphenyl)carbonyl-1H-1,2,4-triazole]: the IC50 lay within 1 to 10 µM.

`Cc1cccc(C(=O)n2nc(Nc3cccnc3)nc2N)c1` [compound 220, 5-amino-1-(3-methylphenyl)carbonyl-3-(pyridin-3-yl)amino-1H-1,2,4-triazole]: the IC50 was more than 20 µM.

Compound `Cc1cccc(C(=O)n2nc(Nc3ccc4nn(C)cc4c3)nc2N)c1` [compound 222, 5-amino-3-(2-methyl-2H-indazol-5yl)amino-1-(3-methylphenyl)carbonyl-1H-1,2,4-triazole] yielded an IC50 of more than 20 µM.

`Cc1cccc(C(=O)n2nc(Nc3ccc4c(cnn4C)c3)nc2N)c1` [compound 227, 5-amino-3-[1-methyl-1H-indazol-5-yl]amino-1-(3-methylphenyl)carbonyl-1H-1,2,4-triazole] gave an IC50 of 1 to 10 µM.

With `Cc1cccc(C(=O)n2nc(Nc3ccc4occc4c3)nc2N)c1` [compound 229, 5-amino-3-(benzofuran-5-yl)amino-1-(3-methylphenyl)carbonyl-1H-1,2,4-triazole], the IC50 lay within 1 to 10 µM.

The assay is the same for the next values; noted with them: Table 7; Hela cells, Axl antibody cross-linking stimulation, phospho-Akt chemiluminescence.
`N#Cc1ccc(NC(=O)n2nc(Nc3ccc(OCCN4CCCCC4)cc3)nc2N)cc1` [compound 194, 5-amino-N-(4-cyanophenyl)-3-[4-[2-(piperidin-1-yl)ethoxy]phenylamino]-1H-1,2,4-triazole-1-carboxamide] showed an IC50 of more than 20 µM.

`Cc1cc(C)cc(NC(=O)n2nc(Nc3ccc(OCCN4CCCCC4)cc3)nc2N)c1` [compound 199, 5-amino-N-(3,5-(dimethyl)phenyl)-3-[4-[2-(piperidin-1-yl)ethoxy]phenylamino]-1H-1,2,4-triazole-1-carboxamide] registered an IC50 of more than 20 µM.

`CC(C)(C)OC(=O)n1nc(Nc2ccc(N3CCCCC3)cc2)nc1N` [compound 201, 5-amino-3-[4-(piperidin-1-yl)phenylamino]-1-(tert-butoxycarbonyl)-1H-1,2,4-triazole] gave an IC50 of more than 20 µM.

The same assay, now with this note: inhibition of Axl activity, Table 1.
Take `Nc1nc(Nc2ccc3c(c2)OCCO3)nn1C(=O)c1cccc(OCCC2OCCO2)c1` [compound 210]: the IC50 lay within 1 to 10 µM.

For `Cc1ccc(C(=O)n2nc(Nc3ccccc3O)nc2N)cc1` [compound 211, 5-amino-3-[2-(hydroxyl)phenylamino]-1-(4-methylphenyl)carbonyl-1H-1,2,4-triazole], the IC50 was more than 20 µM.

Regarding `COCCOCOc1cccc(Nc2nc(N)n(C(=O)c3cccc(C)c3)n2)c1` [compound 212, 5-amino-1-(3-methylphenyl)carbonyl-3-[3-[(2-methoxyethoxy)methoxy]phenylamino]-1H-1,2,4-triazole], the IC50 was in the range of 1 to 10 µM.

As to `Nc1nc(Nc2ccc3c(c2)OCCO3)nn1C(=O)c1ccc(OCCC2OCCO2)cc1` [compound 214], the IC50 lay in the range of 1 to 10 µM.

Turning to `COCOc1cccc(Nc2nc(N)n(C(=O)c3cccc(C)c3)n2)c1` [compound 216, 5-amino-3-(3-methoxymethoxy)phenylamino-1-(3-methylphenyl)carbonyl-1H-1,2,4-triazole], the IC50 was more than 20 µM.

`Nc1nc(Nc2ccc(Cl)cc2)nn1C(=O)c1ccc(Cl)cc1` [compound 217, 5-amino-3-(4-chlorophenyl)amino-1-(4-chlorophenyl)carbonyl-1H-1,2,4-triazole] yielded a 50% inhibitory concentration (IC50) of more than 20 µM.

On to `Nc1nc(Nc2ccc(Br)cc2)nn1C(=O)c1ccc(Cl)cc1` [compound 218, 5-amino-3-(4-bromophenyl)amino-1-(4-chlorophenyl)carbonyl-1H-1,2,4-triazole], for which the IC50 lay within 1 to 10 µM.

Regarding `Cc1cccc(C(=O)n2nc(Nc3cccc(OCC(=O)OC(C)(C)C)c3)nc2N)c1` [compound 221, 5-amino-1-(3-methylphenyl)carbonyl-3-[(3-tert-butoxycarbonylmethoxy)phenyl]amino-1H-1,2,4-triazole], the IC50 lay within 1 to 10 µM.

As to `Cc1cccc(C(=O)n2nc(Nc3cccc(OCC(=O)NCCOC4CCCCO4)c3)nc2N)c1` (stereo not drawn) [compound 223], the IC50 was 1 to 10 µM.

In turn, `Cc1cccc(C(=O)n2nc(Nc3cccc(OCC(=O)O)c3)nc2N)c1` [compound 224, 5-amino-3-(3-hydroxycarbonylmethoxy)phenylamino-1-(3-methylphenyl)carbonyl-1H-1,2,4-triazole] returned an IC50 of more than 20 µM.

For the compound `Cc1cccc(C(=O)n2nc(Nc3cccc(OCC(=O)NCCO)c3)nc2N)c1` [compound 225, 5-amino-3-[3-((2-hydroxyethyl)aminocarbonylmethoxy)phenyl]amino-1-(3-methylphenyl)carbonyl-1H-1,2,4-triazole], the IC50 lay within 1 to 10 µM.

As to `Nc1nc(Nc2ccc3c(c2)OCCO3)nn1C(=O)c1ccc(OCCN2CCCCC2)cc1` [compound 226], the half-maximal inhibitory concentration (IC50) lay in the range of 1 to 10 µM.

`Nc1nc(Nc2ccc3c(c2)OCCO3)nn1C(=O)c1cccc(OCC(F)(F)F)c1` [compound 228, 5-amino-3-(1,4-benzodioxan-6-yl)amino-1-(3-(2,2,2-trifluoroethoxy)phenyl)carbonyl-1H-1,2,4-triazole] displayed an IC50 of more than 20 µM.

Still in this assay, the particulars now being: inhibition of Axl activity, phospho-Akt in-cell Western assay; Table 1.
As to `CN(C)c1cccc(C(=O)n2nc(Nc3ccc(OCCN4CCCC4)cc3)nc2N)c1` [compound 197, 5-amino-1-(3-(dimethylamino)phenyl)carbonyl-3-[4-[2-(pyrrolidin-1-yl)ethoxy]phenylamino]-1H-1,2,4-triazole], the IC50 is more than 20 µM.

`COc1ccc(C(=O)n2nc(Nc3ccc(OCCN4CCCC4)cc3)nc2N)cc1OC` [compound 198, 5-amino-1-(3,4-(dimethoxy)phenyl)carbonyl-3-[4-[2-(pyrrolidin-1-yl)ethoxy]phenylamino]-1H-1,2,4-triazole] showed a concentration for half-maximal inhibition (IC50) of more than 20 µM.
